What all share (type): in vivo
For assay [1], the system named is Tetranychus urticae Koch. Briefly: Mite adulticide test (MI). As to conditions: 120 h, 1000 ppm spray to run off on cowpea leaves, adult mites placed 1 day after treatment, live mites counted five days later, read-out: Percent Control MI (mite adulticide). On the procedure: In the following examples, a stock solution for the compounds of the present invention was prepared at 3000 ppm by dissolving 0.24 gram of each compound to be tested in eight mL of acetone and adding 72 mL of distilled water plus three drops of ethoxylated sorbitan monolaurate, a wetting agent. […] For each example that follows, the stock solution was used and the specificized dilutions made. All the tests discussed below, which involved treatment with compounds of this invention, were always repeated with controls, in which the active compound was not provided, to permit a comparison upon which the percent control was calculated. One day before treatment of cowpea primary leaves with the test solutions, a “Figure 8” configuration of tree tanglefoot was applied to each of two cowpea primary leaves, one from each of two plants in a pot. The circle nearer the stem was designated for the mite ovicide test and the circle further from the stem was designated for the mite adulticide test. Groups of adult mites (Tetranychus urticae Koch) were transferred into ovicide circles one day before treatment and the females were allowed to deposit eggs until one hour before treatment, at which point all the adults were removed. The plants were then sprayed to run off with a 1000 ppm of solution diluted from the 3000 ppm stock solution. One day following treatment of the plants with the test solution, groups of approximately 25 adult mites were transferred into the adulticide rings. Five days later, these rings were examined for live mites remaining on the leaves. The percent control was estimated based on the number of mites surviving on the control plants.

Assay [2] concerns Tetranychus urticae Koch. Put plainly: Mite ovicide test (MIOV). As to conditions: 216 h, 1000 ppm spray to run off on cowpea leaves, unhatched eggs examined nine days following treatment, read-out: Percent Control MIOV (mite ovicide). On the procedure: In the following examples, a stock solution for the compounds of the present invention was prepared at 3000 ppm by dissolving 0.24 gram of each compound to be tested in eight mL of acetone and adding 72 mL of distilled water plus three drops of ethoxylated sorbitan monolaurate, a wetting agent. […] For each example that follows, the stock solution was used and the specificized dilutions made. All the tests discussed below, which involved treatment with compounds of this invention, were always repeated with controls, in which the active compound was not provided, to permit a comparison upon which the percent control was calculated. One day before treatment of cowpea primary leaves with the test solutions, a “Figure 8” configuration of tree tanglefoot was applied to each of two cowpea primary leaves, one from each of two plants in a pot. The circle nearer the stem was designated for the mite ovicide test and the circle further from the stem was designated for the mite adulticide test. Groups of adult mites (Tetranychus urticae Koch) were transferred into ovicide circles one day before treatment and the females were allowed to deposit eggs until one hour before treatment, at which point all the adults were removed. The plants were then sprayed to run off with a 1000 ppm of solution diluted from the 3000 ppm stock solution. Nine days following treatment the ovicide rings were examined for unhatched eggs and living immature mites. The percent control was estimated based on the number of unhatched eggs.

Assay [3] has as its system Helicoverpa virescens. Briefly: Tobacco budworm test (TB). To be noted: Heliothis virescens, 336 h; 0.2 mL of 3000 ppm stock solution on diet cell surface; second instar larva; after 14 days; corrected by Abbott's formula; read-out: Percent Control TB (tobacco budworm). The method, then:
In the following examples, a stock solution for the compounds of the present invention was prepared at 3000 ppm by dissolving 0.24 gram of each compound to be tested in eight mL of acetone and adding 72 mL of distilled water plus three drops of ethoxylated sorbitan monolaurate, a wetting agent. […] For each example that follows, the stock solution was used and the specificized dilutions made. All the tests discussed below, which involved treatment with compounds of this invention, were always repeated with controls, in which the active compound was not provided, to permit a comparison upon which the percent control was calculated.
For each compound tested, 0.2 mL of the stock solution prepared asdescribed above, was pipetted onto the surface of each of five diet cells, allowed to spread over the surfaces and air dried for two hours. Then a second instar Helicoverpa virescens larva was introduced into each cell. After 14 days, the number of living larvae was determined for each treatment and percent control, corrected by Abbott's formula, was calculated.

The values that follow come from patent US7592374B2, “Insecticidal nitromethylene compounds” (Crompton Corporation, priority 2005, dated 2009).

For the molecule `CC/C(=N\Nc1cc(-c2ccccc2)ccc1OC)[N+](=O)[O-]` [Compound 1, Propanal, 1-nitro, (4-methoxy-[1,1′-biphenyl]-3-yl)hydrazone], the pest or weed control at 1000 ppm in assay [1] and in assay [2] was 100% throughout. Moreover, in assay [3], the pest or weed control at 3000 µg/mL came out at 64%.
For the molecule `COc1ccc(-c2ccccc2)cc1N/N=C/[N+](=O)[O-]` [Compound 2], the pest or weed control at 1000 ppm in assay [1] and in assay [2] was 0% throughout. For the same molecule, the pest or weed control at 3000 µg/mL in assay [3] stood at 100%.
As to `CCC/C(=N\Nc1cc(-c2ccccc2)ccc1OC)[N+](=O)[O-]` [Compound 3], the pest or weed control at 1000 ppm in assay [1] and in assay [2] was 100% in each case. Further, the pest or weed control at 3000 µg/mL in assay [3] was determined as 0%.
Regarding `COc1ccc(-c2ccccc2)cc1N/N=C(/C(C)C)[N+](=O)[O-]` [Compound 4], the pest or weed control at 1000 ppm came out at 100% in assay [1] and 0% in assay [2]. Also, the pest or weed control at 3000 µg/mL in assay [3] is 0%.
As for `CC/C(=N\Nc1cccc(-c2ccccc2)c1)[N+](=O)[O-]` [Compound 5], the pest or weed control at 1000 ppm was 100% in assay [1] and 0% in assay [2]. The pest or weed control at 3000 µg/mL in assay [3] stood at 0%.
With `CCCCCOc1ccc(-c2ccccc2)cc1N/N=C(/CC)[N+](=O)[O-]` [Compound 6], the pest or weed control at 1000 ppm is 100% in assay [1] and 30% in assay [2]. Moreover, in assay [3], the pest or weed control at 3000 µg/mL came to 0%.
As for `CC/C(=N/Nc1cc(-c2ccccc2)ccc1C)[N+](=O)[O-]` [Compound 7], the pest or weed control at 1000 ppm in assay [1] was determined as 100%; in assay [2], 70%. For the same molecule, the pest or weed control at 3000 µg/mL in assay [3] came to 0%.
In the case of `CC(C)C/C(=N\Nc1cccc(-c2ccccc2)c1)[N+](=O)[O-]` [Compound 8], the pest or weed control at 1000 ppm in assay [1] was found to be 100%; in assay [2] it was 0%. For the same molecule, the pest or weed control at 3000 µg/mL in assay [3] came to 40%.
For `CC/C(=N/Nc1cc(OC)ccc1-c1ccccc1)[N+](=O)[O-]` [Compound 9], the pest or weed control at 1000 ppm in assay [1] and in assay [2] was 70% in each case. In assay [3], the pest or weed control at 3000 µg/mL is 14%.
Consider `C/C(=N\Nc1ccc2c(c1)Cc1ccccc1-2)[N+](=O)[O-]` [Compound 10], for which the pest or weed control at 1000 ppm in assay [1] and in assay [2] was 0% throughout. For the same molecule, the pest or weed control at 3000 µg/mL in assay [3] is 0%.
As to `CC/C(=N\Nc1ccc2c(c1)c1ccccc1n2CC)[N+](=O)[O-]` [Compound 11], the pest or weed control at 1000 ppm in assay [1] and in assay [2] was 30% throughout. For the same molecule, the pest or weed control at 3000 µg/mL in assay [3] came to 57%.
With `CC/C(=N/Nc1ccc(Cl)nc1)[N+](=O)[O-]` [Compound 12], the values for the pest or weed control at 1000 ppm in assay [1] and in assay [2] were 100% and 70%, respectively. Also, the pest or weed control at 3000 µg/mL in assay [3] worked out at 100%.
